Results on 3 compounds are retold here after paper PMC12038006, “Structure and mechanism of a mycobacterial isoniazid efflux pump MsRv1273c/72c with a degenerate nucleotide-binding site” (Nature Communications, 2025).

The structures appear in SMILES notation.

For the assay, the target named is T1, MsRv1273c/72c (Mycolicibacterium smegmatis, UniProt A0R271+A0R272).
T1 construct: gene MSMEG_5008
T1 sequence (A0R272 entry or part of it): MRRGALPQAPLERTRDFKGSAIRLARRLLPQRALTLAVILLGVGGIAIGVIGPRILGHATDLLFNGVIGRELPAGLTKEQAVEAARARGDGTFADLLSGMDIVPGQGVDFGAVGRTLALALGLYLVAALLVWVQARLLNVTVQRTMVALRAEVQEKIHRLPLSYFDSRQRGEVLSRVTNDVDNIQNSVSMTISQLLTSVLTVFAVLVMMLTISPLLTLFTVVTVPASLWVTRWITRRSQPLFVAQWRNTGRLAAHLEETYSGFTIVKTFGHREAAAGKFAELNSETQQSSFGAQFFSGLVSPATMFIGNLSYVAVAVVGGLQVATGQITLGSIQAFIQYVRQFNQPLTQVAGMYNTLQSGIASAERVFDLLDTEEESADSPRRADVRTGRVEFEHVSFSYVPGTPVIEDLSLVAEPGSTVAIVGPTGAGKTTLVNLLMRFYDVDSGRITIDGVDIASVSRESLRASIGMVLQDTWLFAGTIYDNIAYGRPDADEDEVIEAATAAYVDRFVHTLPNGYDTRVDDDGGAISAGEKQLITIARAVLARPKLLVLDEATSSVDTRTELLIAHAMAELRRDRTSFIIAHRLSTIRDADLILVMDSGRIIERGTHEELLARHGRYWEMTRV
T1 sequence (A0R271 entry or part of it): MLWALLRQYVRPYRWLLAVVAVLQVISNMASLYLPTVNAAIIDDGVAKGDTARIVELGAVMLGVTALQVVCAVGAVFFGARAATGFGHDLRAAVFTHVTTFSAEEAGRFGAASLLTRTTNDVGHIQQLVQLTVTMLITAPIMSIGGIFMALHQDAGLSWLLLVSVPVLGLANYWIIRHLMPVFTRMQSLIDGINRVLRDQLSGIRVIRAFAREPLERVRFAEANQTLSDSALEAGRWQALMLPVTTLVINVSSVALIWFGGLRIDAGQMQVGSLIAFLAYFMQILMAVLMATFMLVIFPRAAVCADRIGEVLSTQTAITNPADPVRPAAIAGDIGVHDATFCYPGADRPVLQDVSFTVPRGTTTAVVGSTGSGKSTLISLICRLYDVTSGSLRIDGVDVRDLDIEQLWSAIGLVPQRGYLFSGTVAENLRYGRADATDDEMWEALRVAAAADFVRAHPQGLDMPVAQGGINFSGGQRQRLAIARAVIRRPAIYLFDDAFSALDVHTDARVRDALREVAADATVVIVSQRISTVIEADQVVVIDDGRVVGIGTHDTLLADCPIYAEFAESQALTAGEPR
In kind it is binding.
As for `Nc1ncnc2c1ncn2[C@@H]1O[C@H](COP(=O)(O)OP(=O)(O)O)[C@@H](O)[C@H]1O` [ADP], the cryo-EM structure entry is reported as “In this structure, ADP binds at the consensus site”.

For `Nc1ncnc2c1ncn2[C@@H]1O[C@H](COP(=O)(O)OP(=O)(O)OP(=O)(O)O)[C@@H](O)[C@H]1O` [ATP], the cryo-EM structure result was “the degenerate site is bound with an ATP, which has not been hydrolyzed”.

Consider `Nc1ncnc2c1ncn2[C@@H]1O[C@H](COP(=O)(O)OP(=O)(O)NP(=O)(O)O)[C@@H](O)[C@H]1O` [AMPPNP], for which the cryo-EM structure entry is listed as “Though both NBSs bind AMPPNP, the NBDs are partially dimerized at the degenerate site”.
